Measurements taken from paper PMC9256669, “Monomethyl auristatin antibody and peptide drug conjugates for trimodal cancer chemo-radio-immunotherapy” (Nature Communications, 2022).
“And” between values parts separate entries of the source, which are not always exact repeats. Equal values may be shown once. Non-standard residues stand in square brackets, D forms with d. Residues, ends and D or L forms follow the SMILES beside them. *: point of attachment. Dolaproine = CO[C@@H]([C@@H]1CCCN1)[C@@H](C)C(=O)O; Dil = CC[C@H](C)[C@H](NC)[C@@H](CC(=O)O)OC; X1 = C[C@@H](N*)[C@@H](O)c1ccccc1; NMeV = CN[C@H](C(=O)O)C(C)C

System: B16 cells
Test: NanoString PanCancer IO 360 gene expression and gene set analysis of MMAE-treated cells
Assay type: cell-based, murine
Description: RNA was isolated from cells or tumor tissues and comprehensive immune profiling was analyzed using the NanoString PanCancer IO 360 Panel and NanoString nCounter PanCancer Mouse Immune Profiling gene expression platforms. Gene set analysis with calculated global significance scores and directed significance scores were calculated for treated cells. The Advanced Analysis module of the nSolver software was used to analyze genes associated with listed immune cells in tumors and given a Z-score (n = 3 mice per group). Expression levels of GZMB were analyzed using real-time quantitative PCR. Reverse transcription was performed with the iScript cDNA synthesis kit (Biorad), using aliquots of total RNA extracted with RNeasy Plus Mini Kit (Qiagen). Gene-specific primers were GZMB-F […] and GZMB-R […]. Real-time PCR reactions were performed using the CFX Connect Real-Time PCR System (Biorad) and the amplifications were done using the iTaq Universal SYBR Green Supermix (Biorad). qPCR data were analyzed using the Bio-Rad CFX Maestro software. […]
a Undirected Directed Enrichment
Pathway # of Genes Enrichment Score Score
Gene Name Supplementary Figure 1: Gene
Mdm2 expression analysis of MMAE treated
Casp3 cells. B16 cells exposed to 5 nM MMAE for
Bcl2l1 72 hrs. RNA collected and analyzed using Cd68 murine NanoString PanCancer IO 360
Thbs1 Panel. a) Gene set analysis with calculated
Gls global significance scores and directed
Fstl3 significance scores. b) Heatmap depicting
Mfge8 2 differential gene expression of 36 genes
Brd3 1 control and MMAE treated cells. Source
Pias4 0 data are provided in Source Data file under
Fzd9 tab labeled Figure 1b.
Supplementary Data 1: Complete NanoString expression data of Figure 1b. Untreated control (n=2) and 5 nM MMAE treated (n=3) B16 cells were harvested at 72 hrs. RNA was collected and analyzed using NanoString PanCancer IO 360 Panel. Individual normalized RNA expression values shown for each gene. […]

[1] = 5 nM MMAE 72 hrs, gene set analysis
[2] = 5 nM MMAE 72 hrs, samples MMAE_5, MMAE_1, MMAE_3

CC[C@H](C)[C@@H]([C@@H](CC(=O)N1CCC[C@H]1[C@H](OC)[C@@H](C)C(=O)N[C@H](C)[C@@H](O)c1ccccc1)OC)N(C)C(=O)[C@@H](NC(=O)[C@@H](NC)C(C)C)C(C)C [MMAE, monomethyl auristatin E] (H-[NMeV]V[Dil][Dolaproine]-X1)
Directed Enrichment Score: Angiogenesis [1]: 1.8412 | Directed Enrichment Score: Antigen Presentation [1]: 0.8121 | Directed Enrichment Score: Apoptosis [1]: 0.9856 | Directed Enrichment Score: Autophagy [1]: -3.279 | Directed Enrichment Score: Cell Proliferation [1]: -0.7774 | Directed Enrichment Score: Costimulatory Signaling [1]: -1.9366 | Directed Enrichment Score: Cytokine and Chemokine Signaling [1]: -1.4236 | Directed Enrichment Score: Cytotoxicity [1]: 0.8779 | Directed Enrichment Score: DNA Damage Repair [1]: -1.9501 | Directed Enrichment Score: Epigenetic Regulation [1]: -1.7988 | Directed Enrichment Score: Hedgehog Signaling [1]: -2.2414 | Directed Enrichment Score: Hypoxia [1]: -2.4508 | Directed Enrichment Score: Immune Cell Adhesion and Migration [1]: -1.0133 | Directed Enrichment Score: Interferon Signaling [1]: 0.9986 | Directed Enrichment Score: JAK-STAT Signaling [1]: -1.657 | Directed Enrichment Score: Lymphoid Compartment [1]: 0.8253 | Directed Enrichment Score: MAPK [1]: -1.437 | Directed Enrichment Score: Matrix Remodeling and Metastasis [1]: 1.1775 | Directed Enrichment Score: Metabolic Stress [1]: -2.3196 | Directed Enrichment Score: Myeloid Compartment [1]: 0.1922 | Directed Enrichment Score: NF-kappaB Signaling [1]: -0.7242 | Directed Enrichment Score: Notch Signaling [1]: -1.0152 | Directed Enrichment Score: PI3K-Akt [1]: -1.358 | Directed Enrichment Score: TGF-beta Signaling [1]: -2.2971 | Directed Enrichment Score: Wnt Signaling [1]: -2.3166 | Undirected Enrichment Score: Angiogenesis [1]: 2.7066 | Undirected Enrichment Score: Antigen Presentation [1]: 1.2276 | Undirected Enrichment Score: Apoptosis [1]: 2.3071 | Undirected Enrichment Score: Autophagy [1]: 3.5536 | Undirected Enrichment Score: Cell Proliferation [1]: 2.1596 | Undirected Enrichment Score: Costimulatory Signaling [1]: 2.2732 | Undirected Enrichment Score: Cytokine and Chemokine Signaling [1]: 1.9551 | Undirected Enrichment Score: Cytotoxicity [1]: 1.637 | Undirected Enrichment Score: DNA Damage Repair [1]: 2.4043 | Undirected Enrichment Score: Epigenetic Regulation [1]: 2.4405 | Undirected Enrichment Score: Hedgehog Signaling [1]: 3.1229 | Undirected Enrichment Score: Hypoxia [1]: 2.9454 | Undirected Enrichment Score: Immune Cell Adhesion and Migration [1]: 1.8838 | Undirected Enrichment Score: Interferon Signaling [1]: 1.5239 | Undirected Enrichment Score: JAK-STAT Signaling [1]: 2.5395 | Undirected Enrichment Score: Lymphoid Compartment [1]: 1.1946 | Undirected Enrichment Score: MAPK [1]: 2.756 | Undirected Enrichment Score: Matrix Remodeling and Metastasis [1]: 2.3587 | Undirected Enrichment Score: Metabolic Stress [1]: 2.8728 | Undirected Enrichment Score: Myeloid Compartment [1]: 1.2711 | Undirected Enrichment Score: NF-kappaB Signaling [1]: 1.6264 | Undirected Enrichment Score: Notch Signaling [1]: 2.5438 | Undirected Enrichment Score: PI3K-Akt [1]: 2.7297 | Undirected Enrichment Score: TGF-beta Signaling [1]: 3.339 | Undirected Enrichment Score: Wnt Signaling [1]: 3.1574 | NanoString scores: Bcl2l1 [2]: 0.4361 and 0.5098 and 0.454 | NanoString scores: Cd68 [2]: 1.981 and 1.6572 and 1.978 | NanoString scores: Mdm2 [2]: 0.6422 and 0.6786 and 0.4527 | pathways downregulated by MMAE (gene set analysis) (downregulated pathways / all pathways): 17/25
